Test results from patent publication US20230286928A1, “HETEROCYCLIC COMPOUNDS USEFUL IN THE TREATMENT OF DISEASE” (Epigen Biosciences, Inc., priority 2018, published 2023).
pIC50: −log10 of the molar value.

Target: T1, LPA1R (Homo sapiens, UniProt Q92633)
T1 construct: host or cells: LPA1R expressing cells (Millipore, GPCR Profiler)
Experiment: Calcium flux assay: inhibition of LPA-stimulated Ca2+ flux (FLIPR, antagonist mode)
Assay type: cell-based
Settings: LPA1R Ca2+ flux functional assay, LPA1R expressing cells challenged with EC80 of LPA, read-out: LPA1 R Antagonist Activity
Experimental: Inhibition of LPA-stimulated Ca^2+ flux was used to assess compound potency using FLIPR technology in a 96 well plate format. The assay buffer used was a modified Hanks Balanced Salt Solution (HBSS) where HBSS was supplemented to contain 20 mM HEPES and 2.5 mM Probenecid at pH7.4 (Millipore, GPCR Profiler®). LPA1R expressing cells (Millipore) were plated and prepared 24 hours prior to assay of test articles. Ca^2+ ion flux was assessed from fluorescence of a Fluo-based No Wash Ca^2+ dye. Antagonist data are generated from plates with LPA concentrations sufficient to generate 80% efficacy [EC80]. Percentage inhibition was calculated from a reduction of efficacy according to concentration of compounds of Formula I-VI. For dose responses the inhibition data was used to calculate compound IC50.
The agonist assay was conducted on a FLIPR^TETRA instrument where the test compound(s), vehicle controls, and reference agonist were added to the assay plate after a fluorescence baseline was established. The agonist assay was a total of 180 seconds and was used to assess each compound's ability to activate each GPCR assayed. Upon completion of the agonist assay, the assay plate was removed from the FLIPR^TETRA and incubated at 25° C. for seven (7) minutes. After the incubation period, the assay plate was placed back in the FLIPR^TETRA and the antagonist assay was initiated.
Antagonist Assay: Using EC80 potency values determined during the agonist assay, all pre-incubated sample compound wells were challenged with EC80 concentration of reference agonist after establishment of a fluorescence baseline. The antagonist assay was conducted using the same assay plate that was used for the agonist assay. The antagonist assay was conducted on a FLIPR^TETRA instrument where 9 vehicle controls and EC80 concentration of reference agonist were added to appropriate wells. The antagonist assay was a total of 180 seconds and was used to assess each compound's ability to inhibit each GPCR assayed.
Data Processing: All assay plate data were subjected to appropriate baseline corrections. After baseline corrections were applied, maximum fluorescence values were exported and data processed to calculate percentage activation (relative to Emax reference agonist and vehicle control values), percentage inhibition (relative to EC80 and vehicle control values), and additional statistical values (i.e. Z′, percentage variation between replicate data values) to assess the quality of each plate. Where assay plate data were rejected, additional experiments were conducted. All dose response curves were generated using GraphPad Prism. The curves were fit by utilizing “Sigmoidal Dose Response (Variable Slope)” equation where the bottom parameter was fixed to “0.” Where appropriate, the top parameter was fixed to “100” to better predict potency values when a full curve was not generated by the concentrations assayed.

T1 sequence (Q92633 whole entry): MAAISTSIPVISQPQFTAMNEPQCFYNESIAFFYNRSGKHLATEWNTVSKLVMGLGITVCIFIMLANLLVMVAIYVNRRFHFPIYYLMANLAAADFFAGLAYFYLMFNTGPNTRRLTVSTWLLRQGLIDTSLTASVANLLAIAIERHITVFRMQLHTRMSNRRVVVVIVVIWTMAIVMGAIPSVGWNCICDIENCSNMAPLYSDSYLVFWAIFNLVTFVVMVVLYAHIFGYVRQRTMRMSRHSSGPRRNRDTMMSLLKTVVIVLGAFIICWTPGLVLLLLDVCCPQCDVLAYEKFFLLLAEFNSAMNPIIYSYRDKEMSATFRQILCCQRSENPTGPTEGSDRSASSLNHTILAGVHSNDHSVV

Row | pIC50 | Structure (SMILES)
1 | 4.30 to 6.00 | C[C@@H](OC(=O)Nc1c(Cl)cnn1-c1ccc(-c2ccc(C3(C(=O)NC#N)CC3)cc2)cc1)c1ccccc1Cl [Compound 25, (R)-1-(2-chlorophenyl)ethyl (4-chloro-1-(4′-(1-(cyanocarbamoyl)cyclopropyl)-[1,1′-biphenyl]-4-yl)-1H-pyrazol-5-yl)carbamate]
2 | > 6.52 | C[C@@H](OC(=O)Nc1c(F)cnn1-c1ccc(-c2ccc(C3(C(=O)NC#N)CC3)cc2F)cc1)c1ccccc1Cl [Compound 26, (R)-1-(2-chlorophenyl)ethyl (1-(4′-(1-(cyanocarbamoyl)cyclopropyl)-2′-fluoro-[1,1′-biphenyl]-4-yl)-4-fluoro-1H-pyrazol-5-yl)carbamate]
3 | > 6.52 | C[C@@H](OC(=O)Nc1c(C#N)cnn1-c1ccc(-c2ccc(C(C)(C)C(=O)O)cc2)cc1)c1ccccc1Cl [Compound 27, (R)-2-(4′-(5-(((1-(2-chlorophenyl)ethoxy)carbonyl)amino)-4-cyano-1H-pyrazol-1-yl)-[1,1′-biphenyl]-4-yl)-2-methylpropanoic acid]
4 | > 6.52 | C[C@@H](OC(=O)Nc1c(C#N)cnn1-c1ccc(-c2ccc(C(C)(C)C(=O)O)cc2)cc1)c1ccccc1 [Compound 28, (R)-2-(4′-(4-cyano-5-(((1-phenylethoxy)carbonyl)amino)-1H-pyrazol-1-yl)-[1,1′-biphenyl]-4-yl)-2-methylpropanoic acid]
